These results are taken from ChEMBL document CHEMBL5126587 (Bioorg Med Chem, 2022).

Molecules are shown by their SMILES. Calls of active or inactive are those of the source. No cut-off for these calls is given here. Numbered stars: 1 amine (or outer) side, 2 acyl side, 3 side chain; on linkers, the order of the positions; unused ones are H or OH. Peptide text beside a SMILES is read from it. * marks the point of attachment. X1 = NC(=O)c1n[nH]nc1[C@@H]1O[C@H](COC(=O)CCC(=O)NCCCOCCOCCOCCCN*)[C@@H](O)[C@H]1O; Suc = O=C(CCC(=O)[*:2])[*:1]

Data set [1] concerns Hepatitis C virus. Format: functional, Hepacivirus hominis, genotype 2a (JFH-AM71), Huh7-J20. Particulars: dose 100 µM; time 72 hrs.
The subject of data set [2] is Zika virus. Type of data set: functional, H/PAN/2016/BEI-259634, Vero.
Data set [3] has as its system Hepatitis C virus. In words: microbe, parasite or virus in culture. Particulars: genotype 2a (JFH-AM71), Huh7-J20, 72 h.
A short description of data set [4]: in vitro. The following applies: human, Huh7-J20 cells.
Data set [5] is described as follows: in vitro. Particulars: human, Huh7.5 cells.
Data set [6] has as its system Zika virus. Type of data set: functional, H/PAN/2016/BEI-259634, Vero. Particulars: dose 50-100 µM; time 3 day; at 50 to 100 µM.
Data set [7] has as its system Zika virus. Type of data set: functional, H/PAN/2016/BEI-259634, Huh7.5. Particulars: dose 50-100 µM; time 3 day; at 50 to 100 µM.
The test system of data set [8] is Zika virus. In words: microbe, parasite or virus in culture. Particulars: H/PAN/2016/BEI-259634, Huh7.5, 72 h.
In data set [9] the test system is Zika virus. Type of data set: functional.
Data set [10] in a line: in vitro. Particulars: monkey, Vero cells.
For data set [11], the system named is Zika virus. In words: microbe, parasite or virus in culture. Particulars: H/PAN/2016/BEI-259634, Vero, 72 h.
Data set [12] concerns Hepatitis C virus. Format: functional, Hepacivirus hominis, genotype 2a (JFH-AM71), Huh7-J20. Particulars: dose 0.045 µM; time 72 hrs.
The mark [13] stands for this setting: H/PAN/2016/BEI-259634, Huh7.5, dose 100.0 µM, time 3.0 day.

Broadly, the IC50 is the concentration that inhibits the measured activity by half. The low end stands for greater potency in that assay, the high end for weaker potency in that assay.

`NC(=O)c1n[nH]nc1[C@@H]1O[C@H](CO)[C@@H](O)[C@H]1O`: the Activity with Hepatitis C virus [1] is 60%; in the data set on Zika virus [2] (dose 100 µM, time 3 day), 20%. Further, the IC50 with Hepatitis C virus [3] stood at 68 µM. Moreover, the selectivity ratio in the data set “in vitro [4]” was determined as 15.7.

Take `O=C(NO)c1n[nH]nc1[C@@H]1O[C@H](CO)[C@@H](O)[C@H]1O`: the results for the selectivity ratio in “in vitro [5]”, in “in vitro [4]” and in the data set “in vitro [10]” were 23.8, 16.8 and 29.1, respectively. In addition, the results for the Activity in the data set with Hepatitis C virus [1], in the data set on Zika virus [6] and in the data set with Zika virus [7] were 67%, 70% and 70%, respectively. In addition, the Activity entry was “Active” in the data set on Zika virus [2] (H/PAN/2016/BEI-259634, Vero, dose 100.0 µM, time 3.0 day) and “Active” with Zika virus [9] (setting [13]). The results for the IC50 in the data set with Zika virus [8], in the data set on Hepatitis C virus [3] and with Zika virus [11] were 37.3 µM, 49.1 µM and 33.2 µM, respectively.

Take `NC(=O)c1ncn([C@@H]2O[C@H](CO)[C@@H](O)[C@H]2O)n1` [RIBAVIRIN]: the selectivity ratio is 240 in “in vitro [5]”, 46.8 in the data set “in vitro [4]” and 41.6 in the data set “in vitro [10]”. Besides, the Activity in the data set with Hepatitis C virus [1] was determined as 80%; with Zika virus [2] (dose 100 µM, time 3 day) it was 80%; in the data set with Zika virus [9] (dose 100 µM, time 3 day) it was 80%. Further, the IC50 is 6.9 µM with Zika virus [8], 21.8 µM in the data set on Hepatitis C virus [3] and 29.9 µM in the data set on Zika virus [11].

`CCCNC(=O)c1n[nH]nc1[C@@H]1O[C@H](CO)[C@@H](O)[C@H]1O` came in with an Activity in the data set on Hepatitis C virus [1] of 45%. In the data set with Hepatitis C virus [3], this compound showed an IC50 of 100 µM. Besides, in the data set “in vitro [4]”, the selectivity ratio was determined as 7.3. Further, the outcome with Zika virus [9] (setting [13]) was Active.

In the case of `O=C(NCCCO)c1n[nH]nc1[C@@H]1O[C@H](CO)[C@@H](O)[C@H]1O`, the Activity in the data set on Hepatitis C virus [1] turned out to be 45%; in the data set with Zika virus [2] (dose 100 µM, time 3 day) it was 20%. In the data set with Hepatitis C virus [3], this compound had an IC50 of 68 µM. Besides, the selectivity ratio in “in vitro [4]” was determined as 13.4.

`N=C(N)NCCC[C@H](NC(=O)[C@H](CCCNC(=N)N)NC(=O)[C@H](CCCNC(=N)N)NC(=O)[C@H](CCC(N)=O)NC(=O)[C@H](CCCNC(=N)N)NC(=O)[C@H](CCCNC(=N)N)NC(=O)[C@H](CCCCN)NC(=O)[C@H](CCCCN)NC(=O)[C@H](CCCNC(=N)N)NC(=O)CNC(=O)[C@H](Cc1ccc(O)cc1)NC(=O)CCC(=O)NCCCOCCOCCOCCCNC(=O)CCC(=O)OC[C@H]1O[C@@H](c2n[nH]nc2C(N)=O)[C@H](O)[C@@H]1O)C(N)=O` had an Activity in the data set on Hepatitis C virus [12] of 45%.

`CC[C@H](C)[C@H](NC(=O)[C@H](Cc1cnc[nH]1)NC(=O)[C@H](Cc1c[nH]c2ccccc12)NC(=O)[C@H](CO)NC(=O)CCC(=O)NCCCOCCOCCOCCCNC(=O)CCC(=O)OC[C@H]1O[C@@H](c2n[nH]nc2C(N)=O)[C@H](O)[C@@H]1O)C(=O)N[C@@H](CC(N)=O)C(=O)N[C@@H](CCCNC(=N)N)C(=O)N[C@H](C(=O)N[C@@H](C)C(=O)N[C@@H](CC(C)C)C(=O)N[C@@H](CC(N)=O)C(=O)N[C@@H](CO)C(=O)N[C@@H](CC(N)=O)C(=O)N[C@@H](CC(=O)O)C(=O)N[C@@H](CO)C(N)=O)[C@@H](C)O` ({X1-Suc}-SWHINRTALNSNDS-NH2) displayed an Activity with Hepatitis C virus [12] of 45%.

For `CC(=O)OC[C@H]1O[C@@H](c2n[nH]nc2C(N)=O)[C@H](OC(C)=O)[C@@H]1OC(C)=O`, the result in the data set on Zika virus [9] (setting [13]) was Active.
